The values that follow come from patent US20150177228A1, “DEVICE AND METHOD FOR SCREENING FOR BIOACTIVE MATERIALS USING VISUAL RECOGNITION OF ANIMALS” (GENOMIC DESIGN BIOENGINEERING COMPANY, priority 2012, published 2015).

This assay relates to zebrafish 4 days post fertilization. Kind of assay: Zebrafish colour preference (visual perception response) test in water tank with blue and yellow passage portions. As to conditions: as the alcohol concentration of the medium increased (0%, 0.5%, 1%, 2%); 10 zebrafish, 30-minute intervals, FIG. 5.

Description: 5) The image stored in each of the first to fifth image files was read at 2-minute intervals to count the number of zebrafish in the first passage portion 112 fitted with the first fitting body 120 (preferred color) or the second passage portion 113 fitted with the second fitting body 130 (dislike color).

Regarding `CCO` [alcohol], the “visual perception response of the zebrafish (distribution between first passage portion, preferred color, and second passage portion, dislike color)” value is “scattered in both the first passage portion 112 and the second passage portion 113”.
